The values that follow come from patent US11297838B2, “Pesticidal compositions and methods” (CORTEVA AGRISCIENCE LLC, priority 2018, dated 2022).

For orientation: mortality means the share of the test organisms that died.

Holding throughout (assay type): in vivo
Data set [1] concerns Yellow Fever Mosquito (Aedes aegypti, AEDSAE). The note with it: about 1 day-old larvae, 4000 ppm master solution diluted, 3 days, room temperature. On the procedure: Insecticidal Test for Yellow Fever Mosquito (Aedes aegypti, AEDSAE) (“YFM”)
Master plates containing 400 μg of a molecule dissolved in 100 μL of dimethyl sulfoxide (DMSO) (equivalent to a 4000 ppm solution) are used. A master plate of assembled molecules contains 15 μL per well. To this plate, 135 μL of a 90:10 water/acetone mixture is added to each well. A robot (Biomek® NXP Laboratory Automation Workstation) is programmed to dispense 15 μL aspirations from the master plate into an empty 96-well shallow plate (“daughter” plate). There are 6 reps (“daughter” plates) created per master. The created “daughter” plates are then immediately infested with YFM larvae.
The day before plates are to be treated, mosquito eggs are placed in Millipore water containing liver powder to begin hatching (4 g. into 400 mL). After the “daughter” plates are created using the robot, they are infested with 220 μL of the liver powder/larval mosquito mixture (about 1 day-old larvae). After plates are infested with mosquito larvae, a non-evaporative lid is used to cover the plate to reduce drying. Plates are held at room temperature for 3 days prior to grading. After 3 days, each well is observed and scored based on mortality. In the reporting of the results, the “YFM Rating Table” was used.

In data set [2] the test system is Cabbage Looper (Trichloplusia ni, TRIPNI). Description: Insecticidal test for cabbage looper (CL), 128-well diet tray assay. Conditions: Trichoplusia ni, 168 h; 50 μg/cm^2 on artificial diet, second instar larvae, five to seven days, 25° C.; read-out: CL rating, % Control (or Mortality). On the procedure:
Insecticidal Test for Cabbage Looper (Trichloplusia ni, TRIPNI) (“CL”)
Bioassays on cabbage looper (CL; Trichloplusia ni: Lepidoptera) are conducted using a 128-well diet tray assay. One to five second instar CL larvae are placed in each well (3 mL) of the diet tray that had been previously filled with 1 mL of artificial diet to which 50 μg/cm^2 of the test compound (dissolved in 50 μL of 90:10 acetone-water mixture) had been applied (to each of eight wells) and then allowed to dry. Trays are covered with a clear self-adhesive cover, vented to allow gas exchange, and held at 25° C., 14:10 light-dark for five to seven days. Percent mortality is recorded for the larvae in each well; activity in the eight wells is then averaged. In the reporting of the results, the “BAW & CL Rating Table” was used.

In data set [3] the test system is Beet Armyworm (Spodoptera exigua, LAPHEG). As to the kind of experiment: Insecticidal test for beet armyworm (BAW), 128-well diet tray assay. The note with it: 168 h, 50 μg/cm^2 on artificial diet, second instar larvae, five to seven days, 25° C., read-out: BAW rating, % Control (or Mortality). How it is done: Insecticidal Test for Beet Armyworm (Spodoptera exigua, LAPHEG) (“BAW”)
Bioassays on beet armyworm (BAW; Spodoptera exigua: Lepidoptera) are conducted using a 128-well diet tray assay. One to five second instar BAW larvae are placed in each well (3 mL) of the diet tray that had been previously filled with 1 mL of artificial diet to which 50 μg/cm^2 of the test compound (dissolved in 50 μL of 90:10 acetone-water mixture) had been applied (to each of eight wells) and then allowed to dry. Trays are covered with a clear self-adhesive cover, vented to allow gas exchange, and held at 25° C., 14:10 light-dark for five to seven days. Percent mortality is recorded for the larvae in each well; activity in the eight wells is then averaged. In the reporting of the results, the “BAW & CL Rating Table” was used.

As for `O=C(/N=C1\SCC(=O)N1c1ccccc1CCC1CC1)OCCc1ccc(-c2ncn(-c3ccc(OC(F)(F)F)cc3)n2)cc1` [A7, 4-(1-(4-(Trifluoromethoxy)phenyl)-1H-1,2,4-triazol-3-yl)phenethyl (Z)-(3-(2-(2-cyclopropylethyl)phenyl)-4-oxothiazolidin-2-ylidene)carbamate], the “YFM rating, % Control (or Mortality)” value in data set [1] was “A (80-100)”. The mortality at 50 µg/cm2 is 50 to 100% in data set [2] and 0 to 50% in data set [3].

Turning to `CCOc1ccc(C)cc1N1C(=O)CS/C1=N\C(=O)OCCc1ccc(-c2ncn(-c3ccc(OC(F)(F)F)cc3)n2)cc1` [A16, 4-(1-(4-(Trifluoromethoxy)phenyl)-1H-1,2,4-triazol-3-yl)phenethyl (Z)-(3-(2-ethoxy-5-methylphenyl)-4-oxothiazolidin-2-ylidene)carbamate], the “YFM rating, % Control (or Mortality)” value in data set [1] is “A (80-100)”. Also, the mortality at 50 µg/cm2 in data set [2] and in data set [3] was 50 to 100% throughout.

For `Cc1ccc(C(C)C)c(N2C(=O)CS/C2=N\C(=O)OC(C)Cc2ccc(-c3ncn(-c4ccc(OC(F)(F)F)cc4)n3)cc2)c1` (stereo not drawn) [A19, 1-(4-(1-(4-(Trifluoromethoxy)phenyl)-1H-1,2,4-triazol-3-yl)phenyl)propan-2-yl (Z)-(3-(2-isopropyl-5-methylphenyl)-4-oxothiazolidin-2-ylidene)carbamate], the “YFM rating, % Control (or Mortality)” value in data set [1] was “B (More than 0-Less than 80)”. For the same molecule, the mortality at 50 µg/cm2 in data set [2] and in data set [3] was 50 to 100% in each case.

As for `CCCc1ccc(C)cc1N1C(=O)CS/C1=N\C(=O)OCCc1ccc(-c2ncn(-c3ccc(OC(F)(F)F)cc3)n2)cc1` [A15, 4-(1-(4-(Trifluoromethoxy)phenyl)-1H-1,2,4-triazol-3-yl)phenethyl (Z)-(3-(5-methyl-2-propylphenyl)-4-oxothiazolidin-2-ylidene)carbamate], the “YFM rating, % Control (or Mortality)” value in data set [1] is recorded as “A (80-100)”. For the same molecule, the mortality at 50 µg/cm2 in data set [2] and in data set [3] was 50 to 100% each time.

For `Cc1cc(N2C(=O)CS/C2=N\C(=O)OCCc2ccc(-c3ncn(-c4ccc(OC(F)(F)F)cc4)n3)cc2)c(C(C)C)cc1F` [A17, 4-(1-(4-(Trifluoromethoxy)phenyl)-1H-1,2,4-triazol-3-yl)phenethyl (Z)-(3-(4-fluoro-2-isopropyl-5-methylphenyl)-4-oxothiazolidin-2-ylidene)carbamate], the “YFM rating, % Control (or Mortality)” value in data set [1] was “A (80-100)”. For the same molecule, the mortality at 50 µg/cm2 in data set [2] and in data set [3] was 50 to 100% throughout.

As to `O=C(/N=C1\SCC(=O)N1c1ccccc1CCC(F)(F)F)OCCc1ccc(-c2ncn(-c3ccc(OC(F)(F)F)cc3)n2)cc1` [A8, 4-(1-(4-(Trifluoromethoxy)phenyl)-1H-1,2,4-triazol-3-yl)phenethyl (Z)-(4-oxo-3-(2-(3,3,3-trifluoropropyl)phenyl)thiazolidin-2-ylidene)carbamate], in data set [1], the “YFM rating, % Control (or Mortality)” value is listed as “A (80-100)”. For the same molecule, the mortality at 50 µg/cm2 in data set [2] and in data set [3] was 50 to 100% each time.

Take `COc1ccc(N2C(=O)CS/C2=N\C(=O)OCCc2ccc(-c3ncn(-c4ccc(OC(F)(F)F)cc4)n3)cc2)c(C)c1` [A10, 4-(1-(4-(Trifluoromethoxy)phenyl)-1H-1,2,4-triazol-3-yl)phenethyl (Z)-(3-(4-methoxy-2-methylphenyl)-4-oxothiazolidin-2-ylidene)carbamate]: in data set [1], the “YFM rating, % Control (or Mortality)” value is “A (80-100)”. Further, the mortality at 50 µg/cm2 in data set [2] is 50 to 100%; in data set [3], 0%.

As for `O=C(/N=C1\SCC(=O)N1c1ccccc1/C=C/C(F)(F)F)OCCc1ccc(-c2ncn(-c3ccc(OC(F)(F)F)cc3)n2)cc1` [A9, 4-(1-(4-(Trifluoromethoxy)phenyl)-1H-1,2,4-triazol-3-yl)phenethyl ((Z)-4-oxo-3-(2-((E)-3,3,3-trifluoroprop-1-en-1-yl)phenyl)thiazolidin-2-ylidene)carbamate], the “YFM rating, % Control (or Mortality)” value in data set [1] is listed as “A (80-100)”. The mortality at 50 µg/cm2 in data set [2] and in data set [3] was 50 to 100% each time.

`CCCCc1ccccc1N1C(=O)CS/C1=N\C(=O)OCCc1ccc(-c2ncn(-c3ccc(OC(F)(F)F)cc3)n2)cc1` [A6, 4-(1-(4-(Trifluoromethoxy)phenyl)-1H-1,2,4-triazol-3-yl)phenethyl (Z)-(3-(2-butylphenyl)-4-oxothiazolidin-2-ylidene)carbamate]: the “YFM rating, % Control (or Mortality)” value in data set [1] is given as “A (80-100)”. Also, the mortality at 50 µg/cm2 in data set [2] and in data set [3] was 50 to 100% throughout.

Take `Cc1ccc(Cl)c(N2C(=O)CS/C2=N\C(=O)OCCc2ccc(-c3ncn(-c4ccc(OC(F)(F)F)cc4)n3)cc2)c1` [A12, 4-(1-(4-(Trifluoromethoxy)phenyl)-1H-1,2,4-triazol-3-yl)phenethyl (Z)-(3-(2-chloro-5-methylphenyl)-4-oxothiazolidin-2-ylidene)carbamate]: the “YFM rating, % Control (or Mortality)” value in data set [1] is on record as “A (80-100)”. Further, the mortality at 50 µg/cm2 in data set [2] and in data set [3] was 50 to 100% in each case.

On to `CCOc1ccccc1N1C(=O)CS/C1=N\C(=O)OCCc1ccc(-c2ncn(-c3ccc(OC(F)(F)F)cc3)n2)cc1` [A5, 4-(1-(4-(Trifluoromethoxy)phenyl)-1H-1,2,4-triazol-3-yl)phenethyl (Z)-(3-(2-ethoxyphenyl)-4-oxothiazolidin-2-ylidene)carbamate], for which the “YFM rating, % Control (or Mortality)” value in data set [1] is “A (80-100)”. The mortality at 50 µg/cm2 in data set [2] lay within 50 to 100%; in data set [3], 0 to 50%.

As to `Cc1cc(Cl)c(N2C(=O)CS/C2=N\C(=O)OCCc2ccc(-c3ncn(-c4ccc(OC(F)(F)F)cc4)n3)cc2)cc1C` [A18, 4-(1-(4-(Trifluoromethoxy)phenyl)-1H-1,2,4-triazol-3-yl)phenethyl (Z)-(3-(2-chloro-4,5-dimethylphenyl)-4-oxothiazolidin-2-ylidene)carbamate], in data set [1], the “YFM rating, % Control (or Mortality)” value was “D (No activity noticed in this bioassay)”. Further, the mortality at 50 µg/cm2 in data set [2] and in data set [3] was 0% in each case.

For the molecule `Cc1ccc(F)c(N2C(=O)CS/C2=N\C(=O)OCCc2ccc(-c3ncn(-c4ccc(OC(F)(F)F)cc4)n3)cc2)c1` [A11, 4-(1-(4-(Trifluoromethoxy)phenyl)-1H-1,2,4-triazol-3-yl)phenethyl (Z)-(3-(2-fluoro-5-methylphenyl)-4-oxothiazolidin-2-ylidene)carbamate], the “YFM rating, % Control (or Mortality)” value in data set [1] was “A (80-100)”. The mortality at 50 µg/cm2 in data set [2] was in the range of 50 to 100%; in data set [3], 0 to 50%.

As for `CCC(C)Oc1ccc(C)cc1N1C(=O)CS/C1=N\C(=O)OC(C)Cc1ccc(-c2ncn(-c3ccc(OC(F)(F)F)cc3)n2)cc1` (stereo not drawn) [A49, 1-(4-(1-(4-(Trifluoromethoxy)phenyl)-1H-1,2,4-triazol-3-yl)phenyl)propan-2-yl (Z)-(3-(2-(sec-butoxy)-5-methylphenyl)-4-oxothiazolidin-2-ylidene)carbamate], the mortality at 50 µg/cm2 in data set [2] and in data set [3] was 50 to 100% each time.

`CC(C)c1ccc(Cl)cc1N1C(=O)CS/C1=N\C(=O)OCC(F)c1ccc(-c2ncn(-c3ccc(OC(F)(F)F)cc3)n2)cc1` (stereo not drawn) [A23, 2-Fluoro-2-(4-(1-(4-(trifluoromethoxy)phenyl)-1H-1,2,4-triazol-3-yl)phenyl)ethyl (Z)-(3-(5-chloro-2-isopropylphenyl)-4-oxothiazolidin-2-ylidene)carbamate]: the mortality at 50 µg/cm2 in data set [2] and in data set [3] was 50 to 100% throughout.

Turning to `CC(C)c1ccc(Cl)cc1N1C(=O)CS/C1=N\C(=O)OCC(F)c1ccc(-c2ncn(-c3ccc(OC(F)(F)C(F)(F)F)cc3)n2)cc1` (stereo not drawn) [A25, 2-Fluoro-2-(4-(1-(4-(perfluoroethoxy)phenyl)-1H-1,2,4-triazol-3-yl)phenyl)ethyl (Z)-(3-(5-chloro-2-isopropylphenyl)-4-oxothiazolidin-2-ylidene)carbamate], the mortality at 50 µg/cm2 lay in the range of 0 to 50% in data set [2] and 50 to 100% in data set [3].
